Article PMC8480759, “Inhibitors of histone deacetylase 6 based on a novel 3-hydroxy-isoxazole zinc binding group” (Journal of Enzyme Inhibition and Medicinal Chemistry, 2021)
pIC50: −log10 of the molar value.

Biological target: T1, HDAC6 (Homo sapiens, UniProt Q9UBN7)
T1 sequence (Q9UBN7 1-1215): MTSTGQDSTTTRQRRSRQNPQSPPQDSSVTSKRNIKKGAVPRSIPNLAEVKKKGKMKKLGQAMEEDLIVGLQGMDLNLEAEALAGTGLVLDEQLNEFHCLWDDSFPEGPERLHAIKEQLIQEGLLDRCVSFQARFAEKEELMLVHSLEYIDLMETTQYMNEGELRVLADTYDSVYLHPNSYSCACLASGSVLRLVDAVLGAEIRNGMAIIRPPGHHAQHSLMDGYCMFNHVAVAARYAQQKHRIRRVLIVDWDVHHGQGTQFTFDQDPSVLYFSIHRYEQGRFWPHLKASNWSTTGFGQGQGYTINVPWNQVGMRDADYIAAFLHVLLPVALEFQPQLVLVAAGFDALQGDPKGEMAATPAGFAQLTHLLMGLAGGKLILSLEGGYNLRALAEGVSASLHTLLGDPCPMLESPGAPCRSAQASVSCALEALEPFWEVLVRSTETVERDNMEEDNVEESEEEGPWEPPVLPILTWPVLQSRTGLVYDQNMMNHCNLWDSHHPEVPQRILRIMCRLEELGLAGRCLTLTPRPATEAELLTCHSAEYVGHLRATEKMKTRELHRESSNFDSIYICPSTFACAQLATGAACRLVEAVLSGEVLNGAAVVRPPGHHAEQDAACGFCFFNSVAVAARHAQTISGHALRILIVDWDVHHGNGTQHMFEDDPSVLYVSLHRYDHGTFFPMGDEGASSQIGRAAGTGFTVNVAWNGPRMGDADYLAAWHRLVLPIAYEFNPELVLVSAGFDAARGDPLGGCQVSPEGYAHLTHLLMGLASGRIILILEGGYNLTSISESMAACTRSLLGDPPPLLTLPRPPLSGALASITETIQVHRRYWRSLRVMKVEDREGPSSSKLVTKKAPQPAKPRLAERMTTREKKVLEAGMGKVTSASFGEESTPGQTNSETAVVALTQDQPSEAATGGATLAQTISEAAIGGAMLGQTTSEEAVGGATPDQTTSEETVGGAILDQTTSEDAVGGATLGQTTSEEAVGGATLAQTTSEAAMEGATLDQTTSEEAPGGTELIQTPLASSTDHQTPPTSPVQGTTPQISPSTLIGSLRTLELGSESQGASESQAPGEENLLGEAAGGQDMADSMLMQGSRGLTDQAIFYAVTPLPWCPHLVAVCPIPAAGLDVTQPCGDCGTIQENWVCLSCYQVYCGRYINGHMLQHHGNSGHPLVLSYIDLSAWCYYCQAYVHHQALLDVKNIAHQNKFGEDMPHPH
Test: In vitro HDAC6 fluorogenic enzymatic assay
Assay type: biochemical
Set-up: purchased BPS Bioscience #50076 (Fluorogenic Assay Kit)
Settings: recombinant human HDAC6; dose-response 300 µM to 135 nM

SMILES	pIC50
Oc1cc(-c2ccc(NCc3ccccc3)cc2)on1 [Compound 23]	6.15
Oc1cc(-c2ccc3c(c2)OCO3)on1 [Compound 25]	5.82
